Results published in patent US20250179059A1 (The Regents of the University of California, priority 2021, published 2025).

Key:
[1] = system: human SKM-1 acute myeloid leukemia cells; assay: SKM-1 antiproliferation cell-based assay (ATPlite); conditions: Homo sapiens, SKM-1, 96 h, SKM-1 antiproliferation assay, 4 days, Table C2
Summary of the method: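 Log-phase cells in RPMI 1640/15% FBS were seeded at 34722 cells/mL and exposed for 4 days to nine-concentration DMSO serial dilutions in triplicate. Viability was read as ATP luminescence (ATPlite 1step), and IC50 values came from variable-slope non-linear regression.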

[2] = molecular target: T1, human BRD4 bromodomain II (Homo sapiens, UniProt O60885); assay: Bromodomain binding assay (AlphaScreen), BRD4 BDII; conditions: AlphaScreen assay, Table C2; read-out: BRD4 BDII IC50
T1 construct: human BRD4 bromodomain II [based on Genbank NM_058243, residues 349-460]; host or cells: E. coli
Summary of the method: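 E. coli-expressed N-terminal His6-tagged human BRD4 BDII (residues 349-460) or BDI (residues 44-170) was preincubated 30 min at room temperature with compound (10-point, 3-fold) in pH 7.5 HEPES buffer, 1% DMSO. Displacement of biotinylated tetra-acetylated H4 1-21 peptide was read by AlphaScreen, and IC50 came from curve fitting.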

| SMILES | GI50 [1] [nM] | IC50 [2] [nM] |
| --- | --- | --- |
| CN1CCN(c2ccc(-c3cc(F)cc(-c4ccnc(N5CCNCC5=O)c4)c3O)cc2Cl)C1=O [Example 449, 1-(4-(3′-chloro-5-fluoro-2-hydroxy-4′-(3-methyl-2-oxoimidazolidin-1-yl)-[1,1′-biphenyl]-3-yl)pyridin-2-yl)piperazin-2-one] | 300 to 3000 | 1 to 10 |
| CN[C@H]1CCCN(c2cc(-c3cc(F)cc(-c4ccc(N5CCN(C)C5=O)c(Cl)c4)c3O)ccn2)C1 [Example 450] | 30 to 300 | 1 to 10 |
| [2H]C([2H])([2H])n1ccn(-c2ccc(-c3cc(F)cc(-c4ccnc(N5CC[C@H](N)C5)c4)c3O)cc2Cl)c1=O [Example 451, (S)-1-(3′-(2-(3-aminopyrrolidin-1-yl)pyridin-4-yl)-3-chloro-5′-fluoro-2′-hydroxy-[1,1′-biphenyl]-4-yl)-3-deuteromethyl-1H-imidazol-2(3H)-one] | 0.3 to 30 | 0.01 to 1 |
| [2H]C([2H])([2H])n1ccn(-c2ccc(-c3cc(F)cc(-c4ccnc(N5CCC[C@H](N)C5)c4)c3O)cc2Cl)c1=O [Example 452, (S)-1-(3′-(2-(3-aminopiperidin-1-yl)pyridin-4-yl)-3-chloro-5′-fluoro-2′-hydroxy-[1,1′-biphenyl]-4-yl)-3-deuteromethyl-1H-imidazol-2(3H)-one] | 0.3 to 30 | 0.01 to 1 |
| [2H]C([2H])([2H])n1ccn(-c2ccc(-c3cc(F)cc(-c4ccnc(N5CCN[C@H](C)C5)c4)c3O)cc2Cl)c1=O [Example 453, (R)-1-(3-chloro-5′-fluoro-2′-hydroxy-3′-(2-(3-methylpiperazin-1-yl)pyridin-4-yl)-[1,1′-biphenyl]-4-yl)-3-deuteromethyl-1H-imidazol-2(3H)-one] | 0.3 to 30 | 0.01 to 1 |
| Cn1ccn(-c2ccc(-c3cc(F)cc(-c4ccnc(N5CCNC(C(F)(F)F)C5)c4)c3O)cc2Cl)c1=O (stereo not shown) [Example 454, 1-(3-chloro-5′-fluoro-2′-hydroxy-3′-(2-(3-(trifluoromethyl)piperazin-1-yl)pyridin-4-yl)-[1,1′-biphenyl]-4-yl)-3-methyl-1H-imidazol-2(3H)-one] | 300 to 3000 | 1 to 10 |
| Cn1ccn(-c2ccc(-c3cc(F)cc(-c4ccnc(N5CC6(CNC6)C5)c4)c3O)cc2Cl)c1=O [Example 455, 1-(3′-(2-(2,6-diazaspiro[3.3]heptan-2-yl)pyridin-4-yl)-3-chloro-5′-fluoro-2′-hydroxy-[1,1′-biphenyl]-4-yl)-3-methyl-1H-imidazol-2(3H)-one] | 30 to 300 | 1 to 10 |
| [2H]C([2H])([2H])n1ccn(-c2ccc(-c3cc(F)cc(-c4ccnc(N5CCC[C@H](NC)C5)c4)c3O)cc2Cl)c1=O [Example 456, (S)-1-(3-chloro-5′-fluoro-2′-hydroxy-3′-(2-(3-(methylamrno)piperidin-1-yl)pyridin-4-yl)-[1,1′-biphenyl]-4-yl)-3-deuteromethyl-1H-imidazol-2(3H)-one] | 0.3 to 30 | 0.01 to 1 |
| CN(C)[C@H]1CCCN(c2cc(-c3cc(F)cc(-c4ccc(-n5ccn(C)c5=O)c(Cl)c4)c3O)ccn2)C1 [Example 457, (S)-1-(3-chloro-3′-(2-(3-(dimethylamino)piperidin-1-yl)pyridin-4-yl)-5′-fluoro-2′-hydroxy-[1,1′-biphenyl]-4-yl)-3-methyl-1H-imidazol-2(3H)-one] | 0.3 to 30 | 1 to 10 |
| CN1CCN(c2ccc(-c3cc(F)cc(-c4cc(N5CCNCC5)c5cn[nH]c5c4)c3O)cc2Cl)C1=O [Example 458, 1-(3-chloro-5′-fluoro-2′-hydroxy-3′-(4-(piperazin-1-yl)-1H-indazol-6-yl)-[1,1′-biphenyl]-4-yl)-3-methylimidazolidin-2-one] | 0.3 to 30 | 1 to 10 |
| Cn1ccn(-c2ccc(-c3cc(F)cc(-c4cncc(N5CCC(N)CC5)c4)c3O)cc2Cl)c1=O [Example 459, 1-(3′-(5-(4-aminopiperidin-1-yl)pyridin-3-yl)-3-chloro-5′-fluoro-2′-hydroxy-[1,1′-biphenyl]-4-yl)-3-methyl-1H-imidazol-2(3H)-one] | 0.3 to 30 | 1 to 10 |
| CN1CCN(c2ccc(-c3cc(F)cc(-c4cc(N5CCNCC5)c5cc[nH]c5c4)c3O)cc2Cl)C1=O [Example 460, 1-(3-chloro-5′-fluoro-2′-hydroxy-3′-(4-(piperazin-1-yl)-1H-indol-6-yl)-[1,1′-biphenyl]-4-yl)-3-methylimidazolidin-2-one] | 0.3 to 30 | 1 to 10 |
| Cn1ccn(-c2ccc(-c3cc(F)cc(-c4cncc(N5CCC[C@H](N)C5)c4)c3O)cc2Cl)c1=O [Example 461, (S)-1-(3′-(5-(3-aminopiperidin-1-yl)pyridin-3-yl)-3-chloro-5′-fluoro-2′-hydroxy-[1,1′-biphenyl]-4-yl)-3-methyl-1,3-dihydro-2H-imidazol-2-one] | 0.3 to 30 | 0.01 to 1 |
| Cn1ncn(-c2ccc(-c3cc(F)cc(-c4ccnc(N5CCNCC5)c4)c3O)cc2Cl)c1=O [Example 462, 4-(3-chloro-5′-fluoro-2′-hydroxy-3′-(2-(piperazin-1-yl)pyridin-4-yl)-[1,1′-biphenyl]-4-yl)-1-methyl-1H-1,2,4-triazol-5(4H)-one] | 30 to 300 | 1 to 10 |
| Cn1ccn(-c2ccc(-c3cc(F)cc(-c4ccnc(N5CCNCC5=O)c4)c3O)cc2Cl)c1=O [Example 463, 1-(4-(3′-chloro-5-fluoro-2-hydroxy-4′-(3-methyl-2-oxo-2,3-dihydro-1H-imidazol-1-yl)-[1,1′-biphenyl]-3-yl)pyridin-2-yl)piperazin-2-one] | 30 to 300 | 0.01 to 1 |
| [2H]C([2H])([2H])n1ccn(-c2ccc(-c3cc(F)cc(-c4ccnc(N5CCNCC5=O)c4)c3O)cc2Cl)c1=O [Example 464, 1-(4-(3′-chloro-5-fluoro-2-hydroxy-4′-(3-deuteromethyl-2-oxo-2,3-dihydro-1H-imidazol-1-yl)-[1,1′-biphenyl]-3-yl)pyridin-2-yl)piperazin-2-one] | 30 to 300 | 0.01 to 1 |
| CN1CCN(c2cncc(-c3cc(F)cc(-c4ccc(-n5ccn(C)c5=O)c(Cl)c4)c3O)c2)CC1 [Example 465, 1-(3-chloro-5′-fluoro-2′-hydroxy-3′-(5-(4-methylpiperazin-1-yl)pyridin-3-yl)-[1,1′-biphenyl]-4-yl)-3-methyl-1H-imidazol-2(3H)-one] | 0.3 to 30 | 0.01 to 1 |
| [2H]C([2H])([2H])n1ccn(-c2ccc(-c3cc(F)cc(-c4ccnc(N5CC[C@H](NC)C5)c4)c3O)cc2Cl)c1=O [Example 466, (S)-1-(3-chloro-5′-fluoro-2′-hydroxy-3′-(2-(3-(methylamino)pyrrolidin-1-yl)pyridin-4-yl)-[1,1′-biphenyl]-4-yl)-3-(deuteromethyl)-1H-imidazol-2(3H)-one] | 0.3 to 30 | 0.01 to 1 |
| C[C@@H]1CN(c2cncc(-c3cc(F)cc(-c4ccc(-n5ccn(C)c5=O)c(Cl)c4)c3O)c2)CCN1 [Example 467, (R)-1-(3-chloro-5′-fluoro-2′-hydroxy-3′-(5-(3-methylpiperazin-1-yl)pyridin-3-yl)-[1,1′-biphenyl]-4-yl)-3-methyl-1H-imidazol-2(3H)-one] | 0.3 to 30 | 0.01 to 1 |
| O=c1n(-c2ccc(-c3cc(F)cc(-c4ccnc(N5CCNCC5)c4)c3O)cc2Cl)ccn1C(F)F [Example 468, 1-(3-chloro-5′-fluoro-2′-hydroxy-3′-(2-(piperazin-1-yl)pyridin-4-yl)-[1,1′-biphenyl]-4-yl)-3-(difluoromethyl)-1H-imidazol-2(3H)-one] | 300 to 3000 | 1 to 10 |
